Test results as given in patent US6347239B1, “Method of evaluating the efficacy of drug on brain nerve cells” (priority 1998, dated 2002).
“And” between values parts separate entries of the source, which are not always exact repeats. Equal entries are not always repeated.

Columns and labels:
[1] = test system: primary motor cortex of patients with ALS; assay: Proton MRSI of NAA/Cr in the motor cortex of ALS patients, paired scans; format: in vivo, human
Method: Nineteen patients with a diagnosis of definite or probable ALS, as per the El Escorial Criteria, ^12 were recruited. Each patient underwent paired MRSI examinations. […] Thus, closely paired MRSIs were obtained off medication in 12 subjects who formed a disease control group ALS-C.
Brain proton spectroscopy was performed using a Philips Gyroscan ACS3 operating at 1.5 Tesla (Philips Medical System, Best, The Netherlands). After axial and sagittal scout images and sagittal T1-weighted images were obtained, axial T1-weighted images were acquired with an angulation determined from sagittal T1-weighted images such that the transverse plane was perpendicular to the rostral-caudal axis of the precentral gyrus. These transverse scans were used to select a volume of interest (VOI) centered on the central sulcus, high in the cranium comprised of predominantly cortical brain (FIG. 1A). Cranio-caudal (CC) thickness was 20 mm. Anteroposterior (AP) and left-right (LR) dimensions were adjusted for each patient depending on the skull size and shape to maximize size without including skull. MRSI was performed using a 90°-180°−180° (PRESS) sequence (TR=1750, TE=272, 250×250 mm FOV, 32×32 phase-encoding steps) with prior suppression of water by selective excitation. One patient had all their scans performed with TR=1500. The ROI was repositioned in the identical location in follow up scans of each patient.
Post-processing of data, included a mild Gaussian filter and an inverse two-dimensional Fourier transform of both the water-suppressed and -unsuppressed ^1H-MRS. This was accomplished with XUNSPEC1 software (Philips Medical Systems Best, The Netherlands) running on a Sun SPARC™ station.
The residual water signal was removed using the HSVD (Hankel Singular-Value Decomposition) algorithm which models the time-domain ^1H-MRS data in each voxel with exponentially damped sinusoids. Peaks used to model the water signal were then subtracted from the original data. This algorithm is fully automatic and requires no prior knowledge or operator intervention.
Automated calculation of metabolite peak areas was performed on operator-selected voxels within the motor cortex. Peaks were digitally integrated to yield areas. These values were normalized by dividing them by that of Cr.
The NAA/Cr of the primary motor cortex was determined by averaging the NAA/Cr intensities of voxels located in the precentral gyrus of both hemispheres (FIGS. 1A and 1B). The difference in motor cortex NAA/Cr between two scans (ΔNAA/Cr) obtained approximately 3 weeks apart was determined for each ALS patient in the treated (ALS-R) and control (ALS-C) groups. ΔNAA/Cr was compared between the treated and control groups using a two-sample two-sided Student's t-test. In addition, a two-sided paired Student's t-test was used to evaluate the significance of […] within each group.

[2] = test system: patients with ALS; assay: Clinical status and muscle strength (MRC grades) of ALS patients during therapy; format: in vivo, human
Excerpt: Deltoid and iliopsoas MRC grades improved bilaterally from 4 to 4+.
Several patients agreed to longer term follow up studies. […] Patient #17 was never treated: NAA/Cr decreased from 2.51 to 2.42 after 21 days and further to 2.11 4 months later; their symptoms progressed slowly.

`Nc1nc2ccc(OC(F)(F)F)cc2s1` [RILUZOLE, 2-amino-6-trifluoromethoxy-benzothiazole] was tested, and the “average NAA/Cr for the group after therapy” value ([1]; 11 patients (ALS-R), 24±8 days after initiating therapy, increased from 2.14±0.26, mean±SD, p=0.044) was 2.27±0.24, the “ΔNAA/Cr = Change in NAA/Cr between MRSI scan #1 and #2” value ([1]; ALS-R group, scan just before treatment vs approximately three weeks after starting 50 mg bid, individual patients 1-11 and group mean (n = 11)) was −0.011 and 0.111 and 0.438 and 0.295 and 0.118 and 0.234 and −0.021 and −0.251 and 0.222 and 0.290 and 0.034 and the “NAA/Cr MRSI #2 (NAA/Cr of motor cortex)” value ([1]; ALS-R group, second scan approximately three weeks after starting 50 mg bid, individual patients 1-11 and group mean (n = 11)) was 2.508 and 2.643 and 2.442 and 2.416 and 2.423 and 2.291 and 1.890 and 2.083 and 2.247 and 1.969 and 2.053. For the same compound, the “change in NAA/Cr for the treated group with respect to the untreated group (increase)” value ([1]; ALS-R vs ALS-C, approximately 3 weeks, mean±SE, p=0.008) was 0.22±0.095, the NAA/Cr ([1]; patient #2, after 35 days of therapy, from 2.53) was 2.64 and the NAA/Cr ([1]; patient #2, three months later than the 35-day scan) was 2.74. The NAA/Cr ([1]; patient #3, after 18 days of therapy, from 2.00) was 2.44, the NAA/Cr ([1]; patient #3, three months later than the 18-day scan) was 1.46 and the NAA/Cr ([1]; patient #5, after 21 days of therapy, from 2.24) was 2.31. The NAA/Cr ([1]; patient #5, one year later) was 2.42, the “signal from NAA in the motor cortex” value ([1]; patients with ALS, acute (within 3 weeks) after treatment) was “increase” and the clinical status ([2]; patient #2, three months after the 35-day scan) was “increased strength and fewer cramps”. The clinical status ([2]; patient #3, three months after the 18-day scan) was “significant clinical deterioration”, the “clinical status (weakness, predominantly LMN features)” value ([2]; patient #5, one year later) was “slowly progressed” and the “symptomatic and functional changes” value ([2]; patient #11, after 35 days of therapy) was “improved strength and reduced disability”.
